Data on five compounds can be found in ChEMBL document CHEMBL1146099, “Anthranilic acid based CCK1 receptor antagonists and CCK-8 have a common step in their "receptor desmodynamic processes"” (J Med Chem, 2006).

This experiment has as its target T1, Cholecystokinin receptor type A (Homo sapiens, UniProt P32238).
T1 sequence (P32238 whole entry): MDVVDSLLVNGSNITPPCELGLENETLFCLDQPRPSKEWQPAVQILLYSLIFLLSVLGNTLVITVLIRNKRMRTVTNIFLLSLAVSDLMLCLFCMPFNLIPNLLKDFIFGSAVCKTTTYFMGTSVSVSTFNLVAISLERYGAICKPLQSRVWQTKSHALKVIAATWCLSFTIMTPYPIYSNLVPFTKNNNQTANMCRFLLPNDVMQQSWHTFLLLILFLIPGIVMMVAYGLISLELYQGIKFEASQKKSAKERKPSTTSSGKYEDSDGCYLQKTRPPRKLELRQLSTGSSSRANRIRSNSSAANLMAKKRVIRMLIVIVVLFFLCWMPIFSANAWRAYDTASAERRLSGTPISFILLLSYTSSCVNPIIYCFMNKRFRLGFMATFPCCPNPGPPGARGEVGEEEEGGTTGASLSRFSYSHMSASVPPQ
Put plainly: Displacement of [111In]DTPA-Glu-Gly-[Tyr27(SO3H)]-CCK8 from human CCK1 receptor in A431 cells. Type of experiment: cell-based, A-431.
Usually IC50 stands for the concentration needed to halve the response being measured. Regarding `CC(=O)N/C(=C/c1ccccc1)C(=O)Nc1ccccc1C(=O)NC(Cc1ccccc1)C(=O)O` (racemic), the IC50 was 12700 nM.
With `O=C(Nc1ccccc1C(=O)NC(Cc1ccccc1)C(=O)O)c1cc2ccccc2[nH]1` (racemic) the figure was 197 nM; with `O=C(/C=C/c1ccccc1)Nc1ccccc1C(=O)NC(Cc1ccccc1)C(=O)O` (racemic), 4000 nM; with `CCCCCN(CCCOC)C(=O)C(CCC(=O)O)NC(=O)c1ccc(Cl)c(Cl)c1` (stereo not given) [LOXIGLUMIDE], 195 nM.
Compound `CC(NC(=O)c1ccccc1NC(=O)c1cc2ccccc2[nH]1)C(=O)O` (racemic) returned an IC50 of 2800 nM.
